{"source": "patent US20120211706A1", "about": "“POLYDENTATE LIGAND METAL COMPLEX” (SUMITOMO CHEMICAL COMPANY, LIMITED, priority 2009, published 2012)", "origin": "cited, not measured here", "details": "1N aqueous sulfuric acid solution", "note": "Counter-ions that a name gives are not always drawn."}
{"smiles": "C=C[C@H]1C[N@@]2CC[C@H]1C[C@H]2[C@H](O)c1ccnc2ccc(OC)cc12", "note": "[quinine sulfate]", "values": [{"measurement": "emission quantum yield of standard sample", "result": 55, "unit": "%"}]}
